Entries after “also recorded” stand apart in the source; their conditions may differ.
Columns and labels:
[1] = in vivo; cited from earlier work
[2] = system: carrageenan-induced hind paw inflammation in rats; test: Carrageenan-induced paw oedema rat model, paw volume measurements; format: in vivo; settings: RGC 400 mg/kg oral or indomethacin 2 mg/kg 2 h before carrageenan, two-way ANOVA, Bonferroni, p<0.001
Source text: The aim of the present study was to evaluate in vivo anti-inflammatory activity of RGC (Red Grape Cells) made according to the large scale process of the invention in an acute inflammation model in rats so as to verify the efficiency of the cells produced according to the invention. One of the experimental models most widely used to study acute inflammation in rodents is that based on the intraplantar administration of carrageenan. The study assessed the efficacy of the RGC by two methods: • 1. Paw volume measurements • 2. Inflammatory nociception in freely moving rats • Red Grape Cells (RGC) prepared according to example 1. • RGC was administered orally at dose of 400 mg/kg body weight as a suspension in sterile drinking water, 2 h before carrageenan injection. The dose level was 40 mg/ml. Each rat was dosed with 1 ml of suspension per 100 g body weight. • RGC Composition: […] Rats were divided into three groups of eight rats in each group. The rats in all groups were injected with 1% Carrageenan ([…]) or sterile saline (0.9% NaCl) into the sub plantar tissue of left hind paw of each rat. The Following Tests were Performed: • paw volumes were measured hourly just before carrageenan injection at time point 0 and 1, 2, 4 hours after injection using caliper. • The paw dimensions were measured in two axes and paw volume was calculated. […]

[3] = system: carrageenan-induced behavioral hyperalgesia in rats; test: Hot plate method for measuring inflammatory nociception in freely moving rats; format: in vivo, rat; settings: RGC 400 mg/kg oral (p<0.01) or indomethacin 2 mg/kg (p<0.05-0.01)
Experimental: The study assessed the efficacy of the RGC by two methods: • 1. Paw volume measurements • 2. Inflammatory nociception in freely moving rats • Red Grape Cells (RGC) prepared according to example 1. • RGC was administered orally at dose of 400 mg/kg body weight as a suspension in sterile drinking water, 2 h before carrageenan injection. The dose level was 40 mg/ml. Each rat was dosed with 1 ml of suspension per 100 g body weight. • RGC Composition: […] Rats were divided into three groups of eight rats in each group. The rats in all groups were injected with 1% Carrageenan ([…]) or sterile saline (0.9% NaCl) into the sub plantar tissue of left hind paw of each rat. The Following Tests were Performed: The hot plate method was used to determine inflammatory nociception in freely moving rates. After inducing edema and treatment with vehicle, indomethacin or RGC preparation, the rats were placed on a hot plate maintained at a temperature of 55±0.5° C. The latency to flick or lick the hind paw or jump from the hot plate in comparison to its baseline was considered as the reaction time. […]

[4] = Solubility assay of RES sources in water vs 80% methanol; format: physicochemical
Experimental: RGC, synthetic resveratrol (S-RES; Sigma-Aldrich) and resveratrol extract from the plant Polygonum Capsidatum (plant-RES) were dissolved in 80% methanol to achieve 100% dissolution. Then, all RES sources were dissolved in water at pH 2 and pH 7 and the percentage of dissolution in water was compared to the dissolution in methanol. The RES in all samples was monitored at 306 nm, based on its characteristic absorption profile, and its concentration was determined by a calibration curve of resveratrol analytical standard.

In the case of `Oc1ccc(/C=C/c2cc(O)cc(O)c2)cc1`, the “shape of concentration time curve” value [1] is listed as “distinct single concentration peak”.

For `COc1ccc2c(c1)c(CC(=O)O)c(C)n2C(=O)c1ccc(Cl)cc1` [indomethacin], the “paw edema (volume %), comparison to control group (1M)” value [2] was “statistically significant difference at 2 and 4 h”, the “Hot plate latency delta, baseline-actual time, comparison to vehicle control (1M)” value ([3]; FIG. 3) was “significant decrease in the latency delta of response to the thermal stimulus, 2 and 4 hours after carrageenan injection; also recorded: statistically significant difference at 2 and 4 h” and the “Hot plate latency, % from baseline, comparison to control group (1M)” value ([3]; hot plate 55°C, FIG. 2) was “statistically significant difference at 2 and 4 h”.

For “resveratrol (trans-3,5,4′-trihydroxystilbene) [Synthetic-RES]”, the “dissolution in 80% methanol solution” value ([4]; 80% methanol) was “completely dissolved” and the “dissolution of RES in water, percentage compared to dissolution in methanol” value ([4]; acidified water pH=2 as well as pH 7.0, RES monitored at 306 nm, FIG. 5) was 7%.
